The subject of this assay is T1, trypsin.
T1 construct: gene PRSS1
The assay is described as follows: casein digestion, absorbance at […] nm. The assay is classed as biochemical. Particulars: casein 0.8%, 20 mM Tris-HCl pH 7.4, 37 °C, 20 min.

Turning to `CC(=O)Oc1ccccc1C(=O)O` [acetylsalicylic acid], the “Acetylsalicylic Acid” value came to 5.11 ± 0.97 µg/mL.
